Test results taken from EP1986670B1, “INTESTINAL ALPHA-GLUCOSIDASE INHIBITORS AND A PROCESS FOR THE ISOLATION AND USE THEREOF” (Council of Scientific and Industrial Research, priority 2006, dated 2007).

Molecular target: intestinal α-glucosidase
Assay: Assay for intestinal α-glucosidase inhibition (p-nitrophenyl α-D-glucopyranoside substrate, read at 405 nm)
Format: biochemical, Rat
Settings: for Intestinal α-glucosidase inhibitory activity IC50 VALUES: crude enzyme from rat intestinal acetone powder, substrate p-nitrophenyl α-D-glucopyranoside, phosphate buffer pH6.8, triplicate
Experimental: Example 2: Assay for intestinal α-glucosidase inhibition:- Rat intestinal acetone powder (sigma chemicals, USA) in normal saline in ration of 100:1 (w/v) was sonicated properly. Supernatant obtained after centrifugation at 3000rpm x 30 min at 25°C was treated as crude source of mammalian intestinal α-glucosidase 10 µL of test samples prepared from either extracts or the molecules (5mg/ml in DMSO) were incubated in 100µL of 100 mM phosphate buffer (pH6.8) with 50 µL of crude enzyme for 5 minutes. Thereafter 50 µL of substrate (5mM, p-nitrophenyl α-D-glucopyranoside prepared in the buffer)was added. After 5 minutes incubation, released p-nitro phenol was read at 405nm spectrophotometrically. For control and blank readings at the place of test samples 10 µL of DMSO and at the place of substrate 50 µL of buffer was added: In order to compensate interference from colored compounds there individual blanks were prepared and spectophotpmetric reading were evaluated accordingly the percent inhibition was calculated as follows:- […] [formula] and 50% inhibitory concentration(IC50)for test samples were calculated by applying suitable regression analysis from the data obtain from serial dilution of the test samples concentrations. Each test sample and other control samples were run in triplicate.

| Compound | in vitro α-glucosidase inhibitory activity IC50 [µg/mL] | Intestinal α-glucosidase inhibitory activity IC50 VALUES [µg/mL] |
| --- | --- | --- |
| COC(=O)[C@H]1O[C@@H](Oc2cc3oc(-c4ccccc4)cc(=O)c3c(O)c2OC)[C@H](O)[C@@H](O)[C@@H]1O [Oroxyloside methyl ester] | 97.31 | 97.31 |
| O=c1cc(-c2ccccc2)oc2cc(O)c(O)c(O)c12 [Baicalein, 5,6,7-trihydroxy-2-phenyl-chromen-4-one] | 38.71 | 38.71 |

The next lines start with the values.

| in vitro α-glucosidase inhibitory activity IC50 [µg/mL] | Intestinal α-glucosidase inhibitory activity IC50 VALUES [µg/mL] | Compound |
| --- | --- | --- |
|  | 95.39 | COc1cc(O)c2c(=O)cc(-c3ccccc3)oc2c1 [Methoxy chrysin, 5-hydroxy-7-methoxy-2-phenyl-chromen-4-one] |
| 57.59 | 57.59 | O=c1cc(-c2ccccc2)oc2cc(O)cc(O)c12 [Chrysin, 5,7-dihydroxy-2-phenyl-chromen-4-one] |
| 25.90 | 25.90 | COc1c(O)cc2oc(-c3ccccc3)cc(=O)c2c1O [Oroxylin-A, 5,7-Dihydroxy-6-methoxy-2-phenyl-chromen-4-one] |
